What all share (assay): Inhibition of in vitro proliferation of tumor cells by PBD compounds (CTG)
Type in all cases: cell-based

In assay [1] the test system is MKN45 (human gastric cancer cells). Particulars: MKN-45, 144 h, 6 days of culture. As to the method: (§1) The objective of this assay is to measure the activity of the compounds of the present disclosure in inhibiting the proliferation of different tumor cell lines: SK-BR-3 tumor cells (human breast cancer cells, ATCC, Cat. No. HTB-30), NCI-H23 (human non-small cell lung cancer cells, Nanjing Cobioer, Cat. No. CBP60132), and MKN45 (human gastric cancer cells, Nanjing Cobioer, Cat. No. CBP60488). The cells were treated in vitro with different concentrations of the compounds. After 6 days of culture, the proliferation of the cells was measured using CTG (CellTiter-Glo® Luminescent Cell Viability Assay, Promega, Cat. No. G7573) reagent, and the in vitro activity of the compounds was evaluated based on their IC50 values.
(§2) • 1. Cell culture: SK-BR-3, NCI-H23, and MKN45 cells were separately cultured in McCoy's 5A medium (ThermoFisher, Cat. No. 16600108) and RPMI 1640 medium (ThermoFisher, Cat. No. 11875119) containing 10% FBS (Gibco, 10099-141). • 2. Cell plating: After being digested with trypsin (0.25% Trypsin-EDTA (1×), Life Technologies, Cat. No. 25200-072), the SK-BR-3, NCI-H23, and MKN45 were resuspended in their respective media and counted. The density was adjusted to 1.48×10^4 cells/mL, and the cells were plated onto 96-well plates (corning, Cat. No. 3903) at 135 μL/well, i.e., 2000 cells/well, and cultured at 37° C. for 24 h. • 3. Drug formulation: PBD drugs were formulated in round-bottom 96-well plates. Plate 1: In the first column, the concentration was 0.05 mM; in the second column through the fourth column, a 3-fold serial dilution was performed in DMSO; in the fifth column through the sixth column, a 5-fold serial dilution was performed in DMSO; in the seventh column through the ninth column, a 10-fold serial dilution was performed in DMSO; and the tenth column contained DMSO. Plate 2: Corresponding media were added to the first column through the tenth column at 196 μL/well; 4 μL of solution was transferred from each well of the first column through the tenth column of plate 1 to plate 2 and well mixed with the medium; 15 μL of the mixture was added to the cells plated the day before, and the cells were cultured at 37° C. for another 6 days. • 4. CTG assay: The cell culture plates were taken out and equilibrated to room temperature. CTG was added at 75 μL/well, and the plates were incubated at room temperature in the dark for 10 min. Then luminescence values were measured on a microplate reader (BMG labtech, PHERAstar FS).

Assay [2] has as its system NCI-H23 (human non-small cell lung cancer cells). Particulars: 144 h, 6 days of culture. As to the method:
as §1, §2

In assay [3] the test system is SK-BR-3 tumor cells (human breast cancer cells). The conditions noted are these: 144 h, 6 days of culture. As to the method:
as §1, §2

Molecules are shown by their SMILES.

Regarding `COc1cc2c(cc1OCCCCCOc1cc3c(cc1OC)C(=O)N1C=C(c4ccc(N5CCN(C[C@H](O)CO)CC5)cc4)C[C@H]1CN3)N=C[C@@H]1CC3(CC3)CN1C2=O` [2-33, (S)-8-((5-(((S)-2-(4-(4-((S)-2,3-Dihydroxypropyl)piperazin-1-yl)phenyl)-7-methoxy-5-oxo-5,10,11,11a-tetrahydro-1H-benzo[e]pyrrolo[1,2-a][1,4]diazepin-8-yl)oxy)pentyl)oxy)-7-methoxy-1,11a-dihydro-3H,5H-spiro[benzo[e]pyrrolo[1,2-a][1,4]diazepine-2,1′-cyclopropan]-5-one], the results for the IC50 in assay [1], in assay [2] and in assay [3] were 0.38 nM, 0.3 nM and 0.73 nM, respectively.

Regarding `COc1cc2c(cc1OCCCCCOc1cc3c(cc1OC)C(=O)N1C=C(c4ccc(SC5CC5)cc4)C[C@H]1CN3)N=C[C@@H]1CC3(CC3)CN1C2=O` [2-3], the IC50 (in general, the concentration that inhibits the measured activity by half) in assay [1] turned out to be 0.49 nM; in assay [2] it was 0.05 nM; in assay [3] it was 0.2 nM.

`COc1cc2c(cc1OCCCCCOc1cc3c(cc1OC)C(=O)N1C=C(c4ccc(C5CCN(C(C)=O)CC5)cc4)C[C@H]1CN3)N=C[C@@H]1CC3(CC3)CN1C2=O` [2-11, (S)-8-((5-(((S)-2-(4-(1-Acetylpiperidin-4-yl)phenyl)-7-methoxy-5-oxo-5,10,11,11a-tetrahydro-1H-benzo[e]pyrrolo[1,2-a][1,4]diazepin-8-yl)oxy)pentyl)oxy)-7-methoxy-1,11a-dihydro-3H,5H-spiro[benzo[e]pyrrolo[1,2-a][1,4]diazepine-2,1′-cyclopropan]-5-one]: the results for the IC50 in assay [1], in assay [2] and in assay [3] were 0.69 nM, 0.11 nM and 0.32 nM, respectively.

Consider `COc1ccc(C2=CN3C(=O)c4cc(OC)c(OCCCCCOc5cc6c(cc5OC)C(=O)N5[C@H](C=N6)C[C@@H]6C[C@@H]65)cc4NC[C@@H]3C2)cc1` [2-21, (1aS,9aS,10aS)-5-Methoxy-6-((5-(((S)-7-methoxy-2-(4-methoxyphenyl)-5-oxo-5,10,11,11a-tetrahydro-1H-benzo[e]pyrrolo[1,2-a][1,4]diazepin-8-yl)oxy)pentyl)oxy)-1a,9a,10,10a-tetrahydrobenzo[e]cyclopropa[4,5]pyrrolo[1,2-a][1,4]diazepin-3(1H)-one], for which the IC50 in assay [1] came to 0.57 nM; in assay [2] it was 0.12 nM; in assay [3], 0.28 nM.

Regarding `COc1cc2c(cc1OCCCCCOc1cc3c(cc1OC)C(=O)N1C=C(c4ccc(C5CCN(C)CC5)cc4)C[C@H]1CN3)N=C[C@@H]1CC3(CC3)CN1C2=O` [2-6, (S)-7-Methoxy-8-((5-(((S)-7-methoxy-2-(4-(1-methylpiperidin-4-yl)phenyl)-5-oxo-5,10,11,11a-tetrahydro-1H-benzo[e]pyrrolo[1,2-a][1,4]diazepin-8-yl)oxy)pentyl)oxy)-1,11a-dihydro-3H,5H-spiro[benzo[e]pyrrolo[1,2-a][1,4]diazepine-2,1′-cyclopropan]-5-one], the IC50 was found to be 0.06 nM in assay [1], 0.03 nM in assay [2] and 0.24 nM in assay [3].

As to `COc1cc2c(cc1OCCCCCOc1cc3c(cc1OC)C(=O)N1C=C(c4ccc(N5CCN(CCO)CC5)cc4)C[C@H]1CN3)N=C[C@@H]1CC3(CC3)CN1C2=O` [2-30, (S)-8-((5-(((S)-2-(4-(4-(2-Hydroxyethyl)piperazin-1-yl)phenyl)-7-methoxy-5-oxo-5,10,11,11a-tetrahydro-1H-benzo[e]pyrrolo[1,2-a][1,4]diazepin-8-yl)oxy)pentyl)oxy)-7-methoxy-1,11a-dihydro-3H,5H-spiro[benzo[e]pyrrolo[1,2-a][1,4]diazepine-2,1′-cyclopropan]-5-one], the IC50 worked out at 0.04 nM in assay [1], 0.02 nM in assay [2] and 0.21 nM in assay [3].

`COc1cc2c(cc1OCCCCCOc1cc3c(cc1OC)C(=O)N1C=C(c4ccc(C5CCN(CCO)CC5)cc4)C[C@H]1CN3)N=C[C@@H]1CC3(CC3)CN1C2=O` [2-9, (S)-8-((5-(((S)-2-(4-(1-(2-Hydroxyethyl)piperidin-4-yl)phenyl)-7-methoxy-5-oxo-5,10,11,11a-tetrahydro-1H-benzo[e]pyrrolo[1,2-a][1,4]diazepin-8-yl)oxy)pentyl)oxy)-7-methoxy-1,11a-dihydro-3H,5H-spiro[benzo[e]pyrrolo[1,2-a][1,4]diazepine-2,1′-cyclopropan]-5-one]: the IC50 in assay [1] was 0.19 nM; in assay [2], 0.23 nM; in assay [3], 1.25 nM.

For the molecule `COc1cc2c(cc1OCCCCCOc1cc3c(cc1OC)C(=O)N1C=C(c4ccc(-n5cccn5)cc4)C[C@H]1CN3)N=C[C@@H]1CC3(CC3)CN1C2=O` [2-4, (S)-8-((5-(((S)-2-(4-(1H-Pyrazol-1-yl)phenyl)-7-methoxy-5-oxo-5,10,11,11a-tetrahydro-1H-benzo[e]pyrrolo[1,2-a][1,4]diazepin-8-yl)oxy)pentyl)oxy)-7-methoxy-1,11a-dihydro-3H,5H-spiro[benzo[e]pyrrolo[1,2-a][1,4]diazepine-2,1′-cyclopropan]-5-one], the IC50 in assay [1] amounted to 1.45 nM; in assay [2], 0.34 nM; in assay [3], 0.71 nM.

Consider `COc1cc2c(cc1OCCCCCOc1cc3c(cc1OC)C(=O)N1C=C(c4ccc(N5CCN(C[C@@H](O)CO)CC5)cc4)C[C@H]1CN3)N=C[C@@H]1CC3(CC3)CN1C2=O` [2-31, (S)-8-((5-(((S)-2-(4-(4-((R)-2,3-Dihydroxypropyl)piperazin-1-yl)phenyl)-7-methoxy-5-oxo-5,10,11,11a-tetrahydro-1H-benzo[e]pyrrolo[1,2-a][1,4]diazepin-8-yl)oxy)pentyl)oxy)-7-methoxy-1,11a-dihydro-3H,5H-spiro[benzo[e]pyrrolo[1,2-a][1,4]diazepine-2,1′-cyclopropan]-5-one], for which the IC50 stood at 0.1 nM in assay [1], 0.08 nM in assay [2] and 0.37 nM in assay [3].

For the molecule `COc1cc2c(cc1OCCCCCOc1cc3c(cc1OC)C(=O)N1C=C(c4ccc(C5CCOCC5)cc4)C[C@H]1CN3)N=C[C@@H]1CC3(CC3)CN1C2=O` [2-5, (S)-7-Methoxy-8-((5-(((S)-7-methoxy-5-oxo-2-(4-(tetrahydro-2H-pyran-4-yl)phenyl)-5,10,11,11a-tetrahydro-1H-benzo[e]pyrrolo[1,2-a][1,4]diazepin-8-yl)oxy)pentyl)oxy)-1,11a-dihydro-3H,5H-spiro[benzo[e]pyrrolo[1,2-a][1,4]diazepine-2,1′-cyclopropan]-5-one], the IC50 in assay [1] was found to be 0.91 nM; in assay [2], 0.41 nM; in assay [3] it was 1.84 nM.

Take `COc1cc2c(cc1OCCCCCOc1cc3c(cc1OC)C(=O)N1C=C(c4ccc(N5CCN(C)CC5)cc4)C[C@H]1CN3)N=C[C@@H]1CC3(CC3)CN1C2=O` [2-1, (S)-7-Methoxy-8-((5-(((S)-7-methoxy-2-(4-(4-methylpiperazin-1-yl)phenyl)-5-oxo-5,10,11,11a-tetrahydro-1H-benzo[e]pyrrolo[1,2-a][1,4]diazepin-8-yl)oxy)pentyl)oxy)-1,11a-dihydro-3H,5H-spiro[benzo[e]pyrrolo[1,2-a][1,4]diazepine-2,1′-cyclopropan]-5-one]: the figures for the IC50 in assay [1], in assay [2] and in assay [3] were 0.02 nM, 0.02 nM and 0.07 nM, respectively.

As for `COc1ccc(C2=CN3C(=O)c4cc(OC)c(OCCCCCOc5cc6c(cc5OC)C(=O)N5CC7(CC7)C[C@H]5CN6)cc4NC[C@@H]3C2)cc1` [2-27, (S)-7-Methoxy-8-((5-(((S)-7-methoxy-2-(4-methoxyphenyl)-5-oxo-5,10,11,11a-tetrahydro-1H-benzo[e]pyrrolo[1,2-a][1,4]diazepin-8-yl)oxy)pentyl)oxy)-1,10,11,11a-tetrahydro-3H,5H-spiro[benzo[e]pyrrolo[1,2-a][1,4]diazepine-2,1′-cyclopropan]-5-one], the IC50 in assay [1] was 7.51 nM; in assay [2] it was 7.28 nM; in assay [3], 5 nM.

With `COc1cc2c(cc1OCCCCCOc1cc3c(cc1OC)C(=O)N1C=C(c4ccc(N5CCOCC5)cc4)C[C@H]1CN3)N=C[C@@H]1CC3(CC3)CN1C2=O` [2-2, (S)-7-Methoxy-8-((5-(((S)-7-methoxy-2-(4-morpholinylphenyl)-5-oxo-5,10,11,11a-tetrahydro-1H-benzo[e]pyrrolo[1,2-a][1,4]diazepin-8-yl)oxy)pentyl)oxy)-1,11a-dihydro-3H,5H-spiro[benzo[e]pyrrolo[1,2-a][1,4]diazepine-2,1′-cyclopropan]-5-one], the IC50 in assay [1] came to 0.09 nM; in assay [2] it was 0.02 nM; in assay [3], 0.05 nM.

(Values after patent publication US20250000989A1, “PYRROLO BENZODIAZEPINE DERIVATIVE, AND CONJUGATE, PREPARATION METHOD AND USE THEREOF” (priority 2021, published 2025).)
